Experimental findings from ChEMBL document CHEMBL2086332, “Identification of a selective small molecule inhibitor of breast cancer stem cells” (Bioorg Med Chem Lett, 2012) are described below.

Converted amounts (≈) assume the structure as drawn. The source made the active and inactive calls. The calls are words filed in the database; no cut-off is given here.

Data set [1] in a line: Growth inhibition of human breast cancer stem cells. The data set is classed as functional.
A short description of data set [2]: Growth inhibition of human mammary epithelial cells at 20 uM. Conditions: epithelial cell. The data set is classed as cell-based.
Data set [3] in a line: Growth inhibition of human mammary epithelial cells. The data set is classed as cell-based. Conditions: Epithelial cell.
The species named for the next data set is Homo sapiens. Description: Growth inhibition of human breast cancer stem cells at 20 uM. The data set is classed as functional.
Data set [4] is described as follows: Stability in presence of glutathione containing medium assessed as compound remaining measured after 48 hrs by UPLC-MS method. Conditions: read-out: Stability. The data set is classed as physicochemical.
Data set [5] can be described thus: Protein binding in human plasma incubated for 48 hrs by UPLC-MS method. The data set is classed as ADME, cell-free. The settings on record: read-out: PPB (converted).
A short description of data set [6]: Stability in phosphate buffered saline with 0.1% DMSO assessed as compound remaining measured after 48 hrs by UPLC-MS method. The data set is classed as physicochemical. Conditions: read-out: Stability.
A short description of data set [7]: Solubility in phosphate buffered saline at 100 microM with 1% DMSO at pH 7.4 at 23 degC by UPLC-MS method. The data set is classed as physicochemical.
Data set [8] is described as follows: Stability in human plasma assessed as compound remaining measured after 5 hrs by UPLC-MS method. The settings on record: read-out: Stability. The data set is classed as ADME, cell-free.

`Cc1ccccc1OCC(=O)N/N=C/c1ccc[nH]1` had a half-maximal effective concentration (EC50) in [1] of 40.7 µM. Also, the “growth inhibition (GI)” value in data set [2] is recorded as “Non-toxic”.

As for `O=C(COc1ccc(Cl)cc1Br)N/N=C/c1ccc[nH]1`, the EC50 in [1] turned out to be 3.16 µM; in data set [3], 20.9 µM.

Consider `O=C(COc1ccc(Cl)cc1Cl)N/N=C/c1ccccc1`, for which the “growth inhibition (GI)” value in the data set listed under Homo sapiens was “inactive”. Moreover, the “growth inhibition (GI)” value in [2] is reported as “Non-toxic”.

Regarding `CC(Oc1cc(Cl)ccc1Cl)C(=O)N/N=C/c1ccc[nH]1` (stereo not drawn), the figures for the concentration for a half-maximal effect (EC50) in [1] and in [3] were 33.4 µM and 97.7 µM, respectively.

`O=C(COc1ccc(Cl)cc1)N/N=C/c1ccc[nH]1` came in with a half-maximal effective concentration (EC50) in [1] of 22.5 µM. In data set [2], the “growth inhibition (GI)” value is reported as “Non-toxic”.

With `O=C(COc1ccc(Cl)cc1Cl)N/N=C/c1ccccc1O`, the figures for the EC50 in data set [1] and in data set [3] were 79.5 µM and 56.3 µM, respectively.

For `O=C(COc1ccc(Cl)cc1Cl)N/N=C/c1c[nH]cn1`, in the data set filed under Homo sapiens, the “growth inhibition (GI)” value is “inactive”. For the same compound, in data set [2], the “growth inhibition (GI)” value is “Non-toxic”.

In turn, `CC(Oc1ccc(F)cc1Cl)C(=O)N/N=C/c1ccc[nH]1` (stereo not drawn) came in with an EC50 in data set [1] of 35.4 µM. Moreover, the “growth inhibition (GI)” value in data set [2] was “Non-toxic”.

For the compound `Cc1ccccc1NCC(=O)N/N=C/c1ccc[nH]1`, the “growth inhibition (GI)” value in the data set filed under Homo sapiens is “inactive”. Besides, in data set [2], the “growth inhibition (GI)” value is “Non-toxic”.

As for `O=C(N/N=C/c1ccc[nH]1)C1CC1c1ccc(Cl)cc1Cl` (stereo not drawn), it took 59.1 µM to reach a half-maximal effect in data set [1] (EC50). Moreover, the “growth inhibition (GI)” value in data set [2] is “Non-toxic”.

For `O=C(COc1ccc2ccccc2c1Br)N/N=C/c1ccc[nH]1`, the half-maximal effective concentration (EC50) in data set [1] is 1.11 µM; in data set [3] it was 3.03 µM.

Consider `O=C(COc1c(Cl)cc(Cl)cc1Cl)N/N=C/c1ccc[nH]1`, for which the 50% effective concentration (EC50) in data set [1] was determined as 1.16 µM; in [3], 27.6 µM. The remaining at 48 h in data set [4] worked out at 85%; in data set [6], 76%. In addition, the fraction unbound at 48 h in data set [5] was 0.012. The compound also yielded a solubility (kinetic) at 100 µM in data set [7] of 6.3 µM (≈ 2.18 µg/mL). Also, the remaining at 5 h in [8] was determined as 49%.

`O=C(COc1ccc(Cl)cc1Cl)N/N=C/c1cc2ccccc2[nH]1`: the figures for the EC50 in data set [1] and in data set [3] were 125 µM and 23.5 µM, respectively.

In the case of `C/C(=N\NC(=O)COc1ccc(Cl)cc1Cl)c1ccc[nH]1`, the “growth inhibition (GI)” value in the data set listed under Homo sapiens was “inactive”. In addition, the “growth inhibition (GI)” value in data set [2] is listed as “Non-toxic”.

Turning to `COc1ccccc1OCC(=O)N/N=C/c1ccc[nH]1`, the “growth inhibition (GI)” value in the data set listed under Homo sapiens was “inactive”. Also, the “growth inhibition (GI)” value in data set [2] is listed as “Non-toxic”.

Take `O=C(N/N=C/c1ccc[nH]1)C1COc2cc3ccccc3cc2O1` (stereo not drawn): the EC50 in data set [1] worked out at 4.21 µM; in data set [3], 18.9 µM.

Consider `Cn1cccc1/C=N/NC(=O)COc1ccc(Cl)cc1Cl`, for which, in the data set listed under Homo sapiens, the “growth inhibition (GI)” value was “inactive”. In data set [2], the “growth inhibition (GI)” value is “Non-toxic”.

On to `Cc1ccc(/C=N/NC(=O)COc2ccc(Cl)cc2Cl)[nH]1`, for which the EC50 in data set [1] is 14.3 µM; in data set [3] it was 16.9 µM.

Take `O=C(COc1ccc(Cl)cc1Cl)N/N=C/c1cccs1`: in the data set listed under Homo sapiens, the “growth inhibition (GI)” value is “inactive”. The “growth inhibition (GI)” value in data set [2] is reported as “Non-toxic”.

In the case of `O=C(COc1ccc(Cl)cc1Cl)N/N=C/c1ccco1`, the “growth inhibition (GI)” value in the data set listed under Homo sapiens was “inactive”. For the same compound, the “growth inhibition (GI)” value in data set [2] is given as “Non-toxic”.

Consider `O=C(COc1ccc2c(c1)OCO2)N/N=C/c1ccc[nH]1`, for which the figures for the EC50 in data set [1] and in [3] were 36.2 µM and 21 µM, respectively.

`O=C(COc1ccc(Cl)cc1Cl)N/N=C/c1ccc[nH]1`: the concentration giving a half-maximal response (EC50) in [1] was 3.33 µM. Further, the “growth inhibition (GI)” value in data set [2] is on record as “Non-toxic”.

As to `O=C(N/N=C/c1ccc[nH]1)C1Cc2ccccc2O1` (stereo not drawn), the “growth inhibition (GI)” value in the data set listed under Homo sapiens is “inactive”. Moreover, the “growth inhibition (GI)” value in data set [2] is listed as “Non-toxic”.

Compound `O=C(COc1cc(Cl)ccc1Cl)N/N=C/c1ccc[nH]1` returned an EC50 in data set [1] of 3.39 µM. The “growth inhibition (GI)” value in data set [2] is on record as “Non-toxic”.

For `O=C(COc1ccc(Cl)cc1Cl)N/N=C/c1cc[nH]n1`, in the data set filed under Homo sapiens, the “growth inhibition (GI)” value was “inactive”. In addition, the “growth inhibition (GI)” value in data set [2] is given as “Non-toxic”.

For the compound `O=C(COc1ccc(Cl)cc1Cl)N/N=C/c1ccccn1`, in the data set listed under Homo sapiens, the “growth inhibition (GI)” value was “inactive”. In [2], the “growth inhibition (GI)” value is “Non-toxic”.

Compound `O=C(CCc1ccc2c(c1)OCO2)N/N=C/c1ccc[nH]1` returned an EC50 in data set [1] of 53.4 µM. Also, the “growth inhibition (GI)” value in [2] is recorded as “Non-toxic”.

On to `O=C(COc1ccccc1Cl)N/N=C/c1ccc[nH]1`, for which the response in [1] was half-maximal at 33.5 µM (EC50). Besides, in [2], the “growth inhibition (GI)” value is given as “Non-toxic”.

Take `N#Cc1ccccc1OCC(=O)N/N=C/c1ccc[nH]1`: the “growth inhibition (GI)” value in the data set filed under Homo sapiens is “inactive”. Moreover, in data set [2], the “growth inhibition (GI)” value is reported as “Non-toxic”.

Turning to `O=C(N/N=C/c1ccc[nH]1)c1cc2ccccc2o1`, the EC50 in [1] came to 6.32 µM. For the same compound, in data set [2], the “growth inhibition (GI)” value is reported as “Non-toxic”.

Regarding `Cc1cc(C)c(OCC(=O)N/N=C/c2ccc[nH]2)c(C)c1`, a half-maximal effect in data set [1] (EC50) was put at 9.42 µM. The “growth inhibition (GI)” value in [2] is on record as “Non-toxic”.

For the compound `O=C(COc1ccc(F)cc1Cl)N/N=C/c1ccc[nH]1`, the figures for the EC50 in data set [1] and in data set [3] were 8.86 µM and 33.6 µM, respectively.

Consider `CC(C)(C)c1ccc(C2CC2C(=O)N/N=C/c2ccc[nH]2)cc1` (stereo not drawn), for which the EC50 is 0.79 µM in data set [1] and 2.14 µM in [3].

For `O=C(COc1c(Cl)cccc1Cl)N/N=C/c1ccc[nH]1`, in data set [1], the EC50 amounted to 126 µM. Further, the “growth inhibition (GI)” value in data set [2] is reported as “Non-toxic”.

As to `CC(C)(C)c1ccc2c(c1)OC(C(=O)N/N=C/c1ccc[nH]1)CO2` (stereo not drawn), the results for the EC50 in data set [1] and in [3] were 2.51 µM and 15 µM, respectively.

In turn, `Cc1cc(Br)ccc1OCC(=O)N/N=C/c1ccc[nH]1` registered an EC50 in data set [1] of 3.76 µM. The “growth inhibition (GI)” value in data set [2] was “Non-toxic”.

For `O=C(CSc1ccc(Cl)cc1Cl)N/N=C/c1ccc[nH]1`, the results for the EC50 in data set [1] and in [3] were 2.3 µM and 18 µM, respectively.

Regarding `Cc1cc(Cl)ccc1OCC(=O)N/N=C/c1ccc[nH]1`, the concentration giving a half-maximal response (EC50) in [1] is 2.89 µM; in data set [3], 26.7 µM.

Turning to `O=C(N/N=C/c1ccc[nH]1)C1CC1c1ccccc1` (stereo not drawn), the half-maximal effective concentration (EC50) in [1] worked out at 12.9 µM. Besides, in data set [2], the “growth inhibition (GI)” value was “Non-toxic”.
